Values quoted from earlier work, collected in patent US20110028639A1, “ROOM TEMPERATURE VULCANIZABLE POLYMERS” (HONEYWELL INTERNATIONAL, INC., priority 2007, published 2011).

System: males rats

## CC(C)=NO [acetone oxime]
  tumors in rats: cause tumors
